Test: Membrane integrity test in lipid monolayer (LB) PAMPA system
Assay type: in vitro ADME
Method: FIG. 3-4 illustrates graphs 300-400 illustrating the membrane integrity test, in accordance with the disclosed embodiments. The membrane integrity test can be performed according to the standard protocol. An 80 μl aqueous solution containing Lucifer yellow (LY) and Brilliant Cresyl Blue (BCB) in the ratio 1:9 is added into the donor well. The PAMPA system can be assembled and incubated for 5 hours at 25° C. The acceptor plate and donor well are separated and concentration of LY and BCB was analyzed by measuring; Fluorescence: Excitation wavelength @428 mn; Emission wavelength @525 nm; Absorbance; at 610 nm for BCB.
FIG. 3 illustrates the graph 300 showing the permeation of BCB as 0.045; Absorbance units after 5 hours of incubation indicating the presence of integral membrane. Similarly, the graph 400 illustrates the rejection of Lucifer Yellow after 5 hours of incubation indicating the presence of integral membrane. The rejection of Lucifer yellow indicates the presence of an integral membrane.

For Brilliant Cresyl Blue [BCB], the “permeation of BCB (absorbance at 610 nm, acceptor)” value (PAMPA) was 0.045 Absorbance units.

In the case of Lucifer yellow, the “permeation/rejection of Lucifer Yellow (fluorescence, excitation 428 / emission 525 nm)” value (LY:BCB 1:9 aqueous solution, 80 μl in donor well, after 5 hours of incubation at 25° C.) is reported as “rejection”.

Reference: patent US20170138969A1, “System And Method For Measuring Permeability Of Drugs/Toxic/Chemical Compounds” (Indian Institute Of Technology Madras, priority 2014, published 2017)
